Test [1] concerns H9c2. Briefly: cells. The note with it: Rattus norvegicus, H9c2, Myocardium. It counts as functional, cell-based.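 Further: confirmatory concentration-response retest of ultra-high-throughput screening hits for modulation of myocardial damage; cell death induced by hydrogen peroxide oxidative stress; compound pretreatment for 60 min then peroxide exposure for 2 h; potency is for protecting the cells against peroxide damage rather than for killing them.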
Test [2] can be described thus: AlphaScreen signal interference compounds, dose response, artefact control for ARNT-TACC3 interaction inhibitor project, biochemical, luminescence, cherry-pick (AID 651705).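 Further: AlphaScreen bead proximity signal that flags compounds interfering with the detection technology; potency reflects signal decrease which marks the compound as an assay artifact.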 It counts as functional.
A short description of test [3]: microbe, parasite or virus in culture. It counts as functional. The note with it: Mycobacterium tuberculosis.
The target of test [4] is T1, Replicative DNA helicase DnaB (Mycobacterium tuberculosis, UniProt P9WMR3).
T1 sequence (P9WMR3 whole entry): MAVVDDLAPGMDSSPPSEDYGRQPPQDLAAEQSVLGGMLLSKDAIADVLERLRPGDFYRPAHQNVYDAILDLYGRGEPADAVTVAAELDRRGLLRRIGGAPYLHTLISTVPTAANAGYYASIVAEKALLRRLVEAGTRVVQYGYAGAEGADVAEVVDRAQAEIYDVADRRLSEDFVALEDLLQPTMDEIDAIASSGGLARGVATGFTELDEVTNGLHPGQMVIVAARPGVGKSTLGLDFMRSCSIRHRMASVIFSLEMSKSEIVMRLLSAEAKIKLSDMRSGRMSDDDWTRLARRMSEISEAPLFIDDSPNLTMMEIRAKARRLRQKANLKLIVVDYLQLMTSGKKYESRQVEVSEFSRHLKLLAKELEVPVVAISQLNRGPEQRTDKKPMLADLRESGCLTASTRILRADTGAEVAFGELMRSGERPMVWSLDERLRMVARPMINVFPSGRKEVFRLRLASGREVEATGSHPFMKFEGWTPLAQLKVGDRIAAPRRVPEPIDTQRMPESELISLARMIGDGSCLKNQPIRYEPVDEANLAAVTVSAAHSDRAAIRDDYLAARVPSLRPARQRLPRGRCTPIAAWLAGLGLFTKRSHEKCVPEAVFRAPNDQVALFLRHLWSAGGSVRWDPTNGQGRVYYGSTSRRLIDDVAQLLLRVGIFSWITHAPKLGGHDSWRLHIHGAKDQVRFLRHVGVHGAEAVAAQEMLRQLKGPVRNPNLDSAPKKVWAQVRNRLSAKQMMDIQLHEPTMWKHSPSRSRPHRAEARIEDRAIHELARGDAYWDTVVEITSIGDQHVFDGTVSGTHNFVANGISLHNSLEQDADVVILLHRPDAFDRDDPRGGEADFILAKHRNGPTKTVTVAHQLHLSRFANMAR
Briefly: DnaB intein splicing inhibitors, dose response, biochemical, cell-free fluorescence (AID 449749). It counts as functional.

Test [5] is described as follows: cytotoxicity toward NIH3T3 fibroblasts, dose response, counter-screen, cell-based, ATP luminescence, mouse fibroblasts (AID 2010).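 Further: cells exposed to compound for about 90 hours before reading.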 It counts as functional. On the technique in general: Counterscreens check selectivity or assay interference.
Test [6] addresses Glutathione-S-transferase (Schistosoma japonicum, UniProt Q26513). In words: biotin-GST/anti-GST TR-FRET signal inhibitors, dose response, artefact control for Vif-APOBEC3G degradation inhibitor project, biochemical (AID 1117362). It counts as functional.
Test [7] concerns INS1. In words: beta cell apoptosis inhibitors, cytokine rescue, dose response, luminescence, retest (AID 449756).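 Further: cell death triggered by IL-1 beta plus TNF-alpha plus IFN-gamma mixture; protective hits raise ATP signal compared with cytokine alone wells.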 It counts as functional, cell-based. As to conditions: Rattus norvegicus.
The nature of test [8]: inhibitors of intracellular T. cruzi replication, confirmation, NIH3T3 host cells, beta-gal luminescence (AID 2044).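 Further: intracellular parasites grown in NIH/3T3 mouse fibroblasts as host cells; luminescent beta-galactosidase reporter signal from transgenic T. cruzi replicating inside host cells; inhibitors lower the luminescence signal.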 It counts as functional, cell-based.
Test [9] deals with T2, Protein RecA (Mycobacterium tuberculosis, UniProt P9WHJ3).
T2 sequence (P9WHJ3 whole entry): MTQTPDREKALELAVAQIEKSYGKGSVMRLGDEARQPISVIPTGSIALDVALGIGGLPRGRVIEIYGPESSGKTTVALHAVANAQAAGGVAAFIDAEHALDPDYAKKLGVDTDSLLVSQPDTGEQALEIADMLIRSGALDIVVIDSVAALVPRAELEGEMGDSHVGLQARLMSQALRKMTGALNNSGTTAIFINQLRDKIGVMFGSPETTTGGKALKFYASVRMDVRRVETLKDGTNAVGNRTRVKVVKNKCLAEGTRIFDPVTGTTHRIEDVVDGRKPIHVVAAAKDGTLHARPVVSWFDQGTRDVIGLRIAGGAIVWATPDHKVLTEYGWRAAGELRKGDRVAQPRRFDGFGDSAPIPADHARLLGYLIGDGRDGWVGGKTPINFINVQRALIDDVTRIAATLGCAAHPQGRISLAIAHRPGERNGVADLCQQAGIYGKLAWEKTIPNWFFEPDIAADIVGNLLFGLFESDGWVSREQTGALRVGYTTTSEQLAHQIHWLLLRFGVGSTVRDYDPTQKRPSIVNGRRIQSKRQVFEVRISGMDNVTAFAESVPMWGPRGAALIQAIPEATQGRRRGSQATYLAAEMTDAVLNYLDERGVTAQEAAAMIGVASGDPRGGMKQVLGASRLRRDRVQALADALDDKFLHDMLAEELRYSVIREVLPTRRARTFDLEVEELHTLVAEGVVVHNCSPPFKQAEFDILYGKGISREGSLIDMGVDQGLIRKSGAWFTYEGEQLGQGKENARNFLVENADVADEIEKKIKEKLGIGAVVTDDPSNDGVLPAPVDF
Briefly: Fluorescence Cell-Free Homogeneous Dose Retest to Identify Inhibitors of RecA-Intein Splicing Activity. [Related pubchem assays (depositor defined):AID2097, AID2223, AID489010, AID492950]. It counts as functional.

Test [10] in a line: THP-1 cell cytotoxicity, dose response, cytotoxicity control for Vif-APOBEC3G degradation inhibitor project, THP-1 cells (AID 1117359). It counts as functional. The note with it: Human immunodeficiency virus 1, THP-1.
For test [11], the target named is Nonstructural protein 1 (Influenza A virus, UniProt Q194T2). It counts as functional, Influenza A virus (A/California/07/2009(H1N1)).
Test [12] deals with Glucose-6-phosphate 1-dehydrogenase (Homo sapiens, UniProt P11413). Briefly: human G6PD enzyme inhibitors, dose response, selectivity assay for P. falciparum G6PD inhibitor project, biochemical, fluorescence (AID 504792). It counts as functional.
Test [13] concerns the target Voltage-gated inwardly rectifying potassium channel KCNH2 (Homo sapiens, UniProt Q12809). As to conditions: Potency.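 Further: confirmatory quantitative high-throughput screen measuring inhibition of hERG channel activity.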
Test [14] deals with Cytochrome P450 3A4 (Homo sapiens, UniProt P08684). As to conditions: Potency.
Test [15] deals with Large T antigen (Simian virus 40, UniProt P03070). It counts as functional, Betapolyomavirus macacae.
In test [16] the target is Aryl hydrocarbon receptor (Homo sapiens, UniProt P35869). As to conditions: Potency.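 Further: confirmatory quantitative high-throughput screen measuring activation of the AhR signaling pathway.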
Test [17] has as its target T3, Interleukin-8 (Homo sapiens, UniProt P10145). In words: Dose Response confirmation of uHTS small molecule hits for cystic fibrosis induced NFkb Inhibitors in a PAF-induced IL8 counterscreen. It counts as functional. As to conditions: read-out: IC50_Mean.
Test [18] deals with T3, Interleukin-8. Briefly: Dose Response confirmation of uHTS small molecule hits for cystic fibrosis induced NFkb Inhibitors in a TNFa-induced IL8 counterscreen. It counts as functional. The note with it: read-out: IC50_Mean.
The target of test [19] is T4, Low molecular weight phosphotyrosine protein phosphatase (Homo sapiens, UniProt P24666).
T4 sequence (P24666 whole entry): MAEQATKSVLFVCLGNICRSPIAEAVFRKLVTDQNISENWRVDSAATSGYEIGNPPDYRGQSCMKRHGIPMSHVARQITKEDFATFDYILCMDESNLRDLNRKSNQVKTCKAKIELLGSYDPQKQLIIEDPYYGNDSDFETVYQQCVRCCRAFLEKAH
It counts as functional. As to conditions: read-out: IC50_Mean.

The target of test [20] is T5, ATP-dependent translocase ABCB1 (Homo sapiens, UniProt P08183). In words: ABCG2 efflux pump inhibitor potency, dose response, Ig-MXP3 cells, JC-1, flow cytometry, set 2 (AID 504566).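 Further: flow cytometry median green fluorescence of retained JC-1 dye; potency of efflux pump inhibition measured as rising substrate retention.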 It counts as functional. The note with it: read-out: EC50_MICROM_. (In general: A flow cytometer gives signals particle by particle.)
Test [21] concerns the target T5, ATP-dependent translocase ABCB1. Briefly: ABCB1 efflux inhibitor potency, dose response, Jurkat-DNR cells, JC-1, flow cytometry, set 2 (AID 504569).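 Further: potency of pump inhibitors that raise cellular JC-1 green fluorescence up to the nicardipine level.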 It counts as functional. As to conditions: read-out: EC50_MICROM_.
Test [22] has as its target Mitochondrial peptide methionine sulfoxide reductase (Bos taurus, UniProt P54149). It counts as functional.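 Further: absorbance read-out, biochemical high-throughput dose-response screen for MsrA inhibitors, confirmatory; recombinant bovine MsrA coupled to E. coli TrxB with NADPH and selenocystamine; potency is for inhibitors of MsrA activity on DMSO substrate.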
Test [23] concerns the target T6, Aminopeptidase N (Plasmodium falciparum FcB1/Columbia, UniProt O96935).
T6 sequence (O96935 whole entry): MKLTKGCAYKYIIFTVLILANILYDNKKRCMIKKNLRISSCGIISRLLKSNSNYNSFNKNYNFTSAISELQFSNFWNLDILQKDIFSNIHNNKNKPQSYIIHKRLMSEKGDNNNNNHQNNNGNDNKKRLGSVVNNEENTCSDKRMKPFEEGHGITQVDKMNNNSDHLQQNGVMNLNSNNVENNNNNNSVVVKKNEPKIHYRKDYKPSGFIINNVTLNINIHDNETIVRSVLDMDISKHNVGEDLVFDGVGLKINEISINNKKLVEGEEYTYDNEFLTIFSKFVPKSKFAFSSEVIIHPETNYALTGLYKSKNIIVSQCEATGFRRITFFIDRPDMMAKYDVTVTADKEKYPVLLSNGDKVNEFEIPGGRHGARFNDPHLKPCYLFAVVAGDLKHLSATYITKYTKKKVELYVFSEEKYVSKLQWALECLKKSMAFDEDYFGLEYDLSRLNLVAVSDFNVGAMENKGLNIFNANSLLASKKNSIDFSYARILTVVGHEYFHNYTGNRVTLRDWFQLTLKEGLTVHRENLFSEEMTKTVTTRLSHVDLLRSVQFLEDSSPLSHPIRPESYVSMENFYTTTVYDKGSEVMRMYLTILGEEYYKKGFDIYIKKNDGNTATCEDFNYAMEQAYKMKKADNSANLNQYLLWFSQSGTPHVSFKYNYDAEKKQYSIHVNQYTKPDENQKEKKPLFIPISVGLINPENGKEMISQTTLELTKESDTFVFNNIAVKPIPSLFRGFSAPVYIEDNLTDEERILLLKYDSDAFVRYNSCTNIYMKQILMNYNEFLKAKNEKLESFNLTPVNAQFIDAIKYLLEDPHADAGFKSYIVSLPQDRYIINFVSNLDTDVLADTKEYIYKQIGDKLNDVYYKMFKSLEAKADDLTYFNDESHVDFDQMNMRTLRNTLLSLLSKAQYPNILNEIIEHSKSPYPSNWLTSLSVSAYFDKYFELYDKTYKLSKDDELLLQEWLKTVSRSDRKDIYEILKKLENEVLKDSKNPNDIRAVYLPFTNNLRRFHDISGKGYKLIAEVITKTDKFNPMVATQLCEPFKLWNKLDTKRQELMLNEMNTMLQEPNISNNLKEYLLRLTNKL
Briefly: P. falciparum M1AAP inhibitors, biochemical, fluorogenic H-Leu-NHMec substrate, 1536-well (AID 1445). Also on record: species or system Plasmodium falciparum 3D7, 3D7.

Active and inactive are the calls of the source.

T3 sequence (P10145 whole entry): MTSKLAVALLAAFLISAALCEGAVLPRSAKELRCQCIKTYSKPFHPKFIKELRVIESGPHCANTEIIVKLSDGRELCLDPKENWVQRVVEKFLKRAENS
T5 sequence (P08183 whole entry): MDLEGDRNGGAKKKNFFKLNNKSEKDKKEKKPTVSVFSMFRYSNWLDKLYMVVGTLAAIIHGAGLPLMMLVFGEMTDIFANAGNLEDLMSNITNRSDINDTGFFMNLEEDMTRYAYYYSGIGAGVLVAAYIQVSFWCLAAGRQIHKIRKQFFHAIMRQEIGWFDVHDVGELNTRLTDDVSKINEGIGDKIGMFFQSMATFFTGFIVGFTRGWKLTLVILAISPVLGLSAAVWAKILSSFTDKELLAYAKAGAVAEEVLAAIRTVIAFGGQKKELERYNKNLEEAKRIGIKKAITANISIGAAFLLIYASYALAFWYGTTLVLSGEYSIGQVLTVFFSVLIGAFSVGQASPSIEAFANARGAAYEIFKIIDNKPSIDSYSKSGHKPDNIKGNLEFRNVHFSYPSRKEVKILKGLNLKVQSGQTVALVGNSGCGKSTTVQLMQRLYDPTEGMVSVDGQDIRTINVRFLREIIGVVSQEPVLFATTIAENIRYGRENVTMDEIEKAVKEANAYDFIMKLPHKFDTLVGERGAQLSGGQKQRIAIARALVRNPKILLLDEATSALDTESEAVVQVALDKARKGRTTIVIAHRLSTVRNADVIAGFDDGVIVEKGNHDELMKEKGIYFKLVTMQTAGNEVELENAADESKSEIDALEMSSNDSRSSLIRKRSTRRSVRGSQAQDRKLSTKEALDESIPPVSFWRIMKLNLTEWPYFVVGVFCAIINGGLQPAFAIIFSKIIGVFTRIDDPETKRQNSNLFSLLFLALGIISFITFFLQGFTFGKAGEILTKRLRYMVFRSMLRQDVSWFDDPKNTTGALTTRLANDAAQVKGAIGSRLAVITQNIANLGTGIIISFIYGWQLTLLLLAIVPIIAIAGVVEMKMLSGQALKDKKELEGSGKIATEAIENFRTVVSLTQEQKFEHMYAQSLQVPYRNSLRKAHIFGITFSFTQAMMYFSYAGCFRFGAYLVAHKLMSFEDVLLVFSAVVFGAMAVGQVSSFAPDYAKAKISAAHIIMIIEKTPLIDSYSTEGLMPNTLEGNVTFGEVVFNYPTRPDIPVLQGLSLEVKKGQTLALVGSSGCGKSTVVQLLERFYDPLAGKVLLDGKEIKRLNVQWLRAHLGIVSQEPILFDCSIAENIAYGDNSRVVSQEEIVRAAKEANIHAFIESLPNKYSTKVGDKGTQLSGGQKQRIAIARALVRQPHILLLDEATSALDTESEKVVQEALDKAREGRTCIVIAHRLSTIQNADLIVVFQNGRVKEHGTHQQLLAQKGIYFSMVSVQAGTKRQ
Glucose-6-phosphate 1-dehydrogenase, sequence (P11413 whole entry): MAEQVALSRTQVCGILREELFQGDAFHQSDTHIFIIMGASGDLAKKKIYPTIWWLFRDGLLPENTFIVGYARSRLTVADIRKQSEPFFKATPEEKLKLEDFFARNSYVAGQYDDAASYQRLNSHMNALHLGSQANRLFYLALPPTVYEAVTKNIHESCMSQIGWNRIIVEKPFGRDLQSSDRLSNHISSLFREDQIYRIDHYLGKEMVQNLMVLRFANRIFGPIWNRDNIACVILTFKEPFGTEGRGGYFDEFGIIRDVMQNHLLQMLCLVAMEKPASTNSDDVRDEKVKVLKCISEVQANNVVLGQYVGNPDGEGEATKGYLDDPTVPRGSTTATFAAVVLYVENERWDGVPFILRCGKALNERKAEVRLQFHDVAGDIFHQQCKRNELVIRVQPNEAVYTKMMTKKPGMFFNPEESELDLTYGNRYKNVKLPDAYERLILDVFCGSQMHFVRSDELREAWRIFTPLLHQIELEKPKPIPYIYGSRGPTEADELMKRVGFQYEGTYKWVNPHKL
Voltage-gated inwardly rectifying potassium channel KCNH2, sequence (Q12809 whole entry): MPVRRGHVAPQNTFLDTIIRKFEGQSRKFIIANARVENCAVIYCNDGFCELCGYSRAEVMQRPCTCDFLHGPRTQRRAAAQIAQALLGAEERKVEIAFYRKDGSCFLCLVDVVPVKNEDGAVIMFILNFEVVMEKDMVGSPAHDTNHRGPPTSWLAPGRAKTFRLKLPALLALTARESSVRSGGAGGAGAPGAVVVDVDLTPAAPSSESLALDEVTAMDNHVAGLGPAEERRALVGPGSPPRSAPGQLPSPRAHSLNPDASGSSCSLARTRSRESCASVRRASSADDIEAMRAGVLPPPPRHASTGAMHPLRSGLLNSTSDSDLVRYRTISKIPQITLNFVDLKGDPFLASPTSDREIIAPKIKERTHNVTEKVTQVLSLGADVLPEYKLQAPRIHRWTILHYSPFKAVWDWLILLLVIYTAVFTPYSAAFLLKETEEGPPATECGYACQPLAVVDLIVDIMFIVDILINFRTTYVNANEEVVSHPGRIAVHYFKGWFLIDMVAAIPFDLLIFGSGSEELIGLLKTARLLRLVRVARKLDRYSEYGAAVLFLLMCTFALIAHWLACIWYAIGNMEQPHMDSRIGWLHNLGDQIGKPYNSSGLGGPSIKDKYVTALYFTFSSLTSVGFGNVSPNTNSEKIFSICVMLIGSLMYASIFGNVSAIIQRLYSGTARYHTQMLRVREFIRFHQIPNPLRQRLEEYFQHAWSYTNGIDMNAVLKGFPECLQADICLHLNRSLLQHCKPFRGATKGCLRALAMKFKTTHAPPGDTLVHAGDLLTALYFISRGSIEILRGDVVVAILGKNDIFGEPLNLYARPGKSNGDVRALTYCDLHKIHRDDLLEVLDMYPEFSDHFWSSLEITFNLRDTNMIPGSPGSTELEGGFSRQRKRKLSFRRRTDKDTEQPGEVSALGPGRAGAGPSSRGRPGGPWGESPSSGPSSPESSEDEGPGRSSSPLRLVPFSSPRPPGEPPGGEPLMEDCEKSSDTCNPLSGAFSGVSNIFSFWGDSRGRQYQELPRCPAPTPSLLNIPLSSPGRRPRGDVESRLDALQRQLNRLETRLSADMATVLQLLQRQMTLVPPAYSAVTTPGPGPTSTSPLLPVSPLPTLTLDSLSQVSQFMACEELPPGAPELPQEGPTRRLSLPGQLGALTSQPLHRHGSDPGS
Aryl hydrocarbon receptor, sequence (P35869 whole entry): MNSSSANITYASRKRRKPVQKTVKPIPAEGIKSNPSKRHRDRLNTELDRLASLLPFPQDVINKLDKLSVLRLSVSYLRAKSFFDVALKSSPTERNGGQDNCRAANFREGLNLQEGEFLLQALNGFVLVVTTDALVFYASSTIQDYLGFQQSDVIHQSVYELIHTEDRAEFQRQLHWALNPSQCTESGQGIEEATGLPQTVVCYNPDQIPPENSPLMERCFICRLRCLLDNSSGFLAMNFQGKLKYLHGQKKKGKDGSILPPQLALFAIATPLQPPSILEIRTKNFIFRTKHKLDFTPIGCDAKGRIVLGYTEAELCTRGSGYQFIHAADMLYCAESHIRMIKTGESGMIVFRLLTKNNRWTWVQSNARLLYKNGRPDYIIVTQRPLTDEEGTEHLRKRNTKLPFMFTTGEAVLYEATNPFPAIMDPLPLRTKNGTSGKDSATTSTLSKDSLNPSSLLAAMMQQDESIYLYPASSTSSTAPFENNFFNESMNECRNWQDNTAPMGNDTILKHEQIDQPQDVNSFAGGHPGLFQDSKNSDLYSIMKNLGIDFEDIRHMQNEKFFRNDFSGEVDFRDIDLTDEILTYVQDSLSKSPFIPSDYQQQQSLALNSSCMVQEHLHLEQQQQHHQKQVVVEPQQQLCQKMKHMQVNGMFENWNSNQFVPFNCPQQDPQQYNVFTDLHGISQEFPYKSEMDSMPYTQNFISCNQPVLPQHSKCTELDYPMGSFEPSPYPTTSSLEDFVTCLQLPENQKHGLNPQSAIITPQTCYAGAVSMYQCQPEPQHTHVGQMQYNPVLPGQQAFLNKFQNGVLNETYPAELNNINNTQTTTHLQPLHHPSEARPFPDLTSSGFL
Cytochrome P450 3A4, sequence (P08684 whole entry): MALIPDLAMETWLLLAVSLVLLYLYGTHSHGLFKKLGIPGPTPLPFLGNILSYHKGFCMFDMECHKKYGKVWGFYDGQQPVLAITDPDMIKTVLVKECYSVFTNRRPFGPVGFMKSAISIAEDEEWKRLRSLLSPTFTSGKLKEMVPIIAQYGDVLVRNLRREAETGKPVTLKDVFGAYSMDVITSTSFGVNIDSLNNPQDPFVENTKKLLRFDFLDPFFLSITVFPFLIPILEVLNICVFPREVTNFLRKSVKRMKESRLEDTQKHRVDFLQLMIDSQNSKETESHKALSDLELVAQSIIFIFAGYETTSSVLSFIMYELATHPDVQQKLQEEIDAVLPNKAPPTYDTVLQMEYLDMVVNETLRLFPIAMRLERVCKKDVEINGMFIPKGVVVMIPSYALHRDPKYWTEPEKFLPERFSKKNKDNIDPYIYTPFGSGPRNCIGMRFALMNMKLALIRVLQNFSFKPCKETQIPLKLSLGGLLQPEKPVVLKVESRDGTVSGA
Glutathione-S-transferase, sequence (Q26513 whole entry): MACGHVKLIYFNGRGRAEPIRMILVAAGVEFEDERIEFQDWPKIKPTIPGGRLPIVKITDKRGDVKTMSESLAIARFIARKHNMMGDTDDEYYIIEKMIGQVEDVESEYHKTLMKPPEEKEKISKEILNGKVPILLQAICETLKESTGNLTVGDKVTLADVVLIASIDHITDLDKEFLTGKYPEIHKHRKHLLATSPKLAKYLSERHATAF
Nonstructural protein 1, sequence (Q194T2 whole entry): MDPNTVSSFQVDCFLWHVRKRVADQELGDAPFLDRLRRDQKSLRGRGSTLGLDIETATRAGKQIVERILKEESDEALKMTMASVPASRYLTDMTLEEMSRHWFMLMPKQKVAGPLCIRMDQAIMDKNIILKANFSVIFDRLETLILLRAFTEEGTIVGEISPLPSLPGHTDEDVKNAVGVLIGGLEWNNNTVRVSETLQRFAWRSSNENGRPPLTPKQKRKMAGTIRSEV

For the molecule `CCc1cc(C(=O)Nc2nc(-c3ccccn3)cs2)sc1C`, in [1], the IC50 is > 79 µM (inactive). In addition, in [2], the AC50 (as a rule, the concentration at which the activity in the assay is half-maximal) was 103 µM (active). In addition, the CC50 in test [3] was 32 µM (active).

On to `CC(C)Nc1ccc(Nc2ccccc2)cc1`, for which the AC50 in [4] is 127 µM (active); in [7], 6.94 µM (active); in test [13], 15.8 µM (inconclusive); in test [14] it was 25.1 µM (inconclusive); in test [16], 44.7 µM (inconclusive). Besides, the EC50 was > 60 µM (not active) in test [5], 2.52 µM (active) in test [8] and 76.4 µM (active) in [9]. Moreover, the IC50 in test [6] was 58 µM (active); in [11], 19.2 µM (active); in test [12], > 80 µM (inactive); in test [15], 9.01 µM (active). The CC50 in test [10] is 26.2 µM (active).

Regarding `Cc1ccccc1C(=O)N1CCN(c2ccc(NC(=O)c3cccc(OC(C)C)c3)cc2)CC1`, the IC50 in test [17] was 39.6 µM (inactive); in [18], > 79 µM (inactive).

Consider `C[C@@H](NC(=O)c1ncn2c1c(O)nc1ccc(Br)cc12)c1ccccc1`, for which, in test [19], the IC50 is 25 µM (inactive).

As to `Cc1nc2ncnn2c(N2CCN(C(=O)c3ccco3)CC2)c1Cc1ccccc1`, the EC50 in test [20] was 2.14 µM (active); in test [21] it was 4.97 µM (active).

As to `O=C(O)c1cc(-c2ccc(/C=N/N3C(=O)C4C5C=CC(C6CC56)C4C3=O)o2)ccc1Cl` (stereo not drawn), the IC50 is 122 µM (inactive) in test [22] and 90.7 µM (active) in test [23].

For the origin of these results see ChEMBL document CHEMBL1201862, “PubChem BioAssay data set” (2004).
